Measurements published in patent publication US20230019491A1, “PYRIMIDINE TBK/IKKe INHIBITOR COMPOUNDS AND USES THEREOF” (Merck Patent GmbH, priority 2017, published 2023).

Experiments:
IKKε = biological target: T1, IKKε (Homo sapiens, UniProt Q14164); assay: IKKε biochemical assay; conditions: 10 point 1:4 dose response, 30 uM top concentration, 90 min at 25° C., LabChip EZ Reader II; read-out: IKKε_IC50
T1 sequence (Q14164 1-716): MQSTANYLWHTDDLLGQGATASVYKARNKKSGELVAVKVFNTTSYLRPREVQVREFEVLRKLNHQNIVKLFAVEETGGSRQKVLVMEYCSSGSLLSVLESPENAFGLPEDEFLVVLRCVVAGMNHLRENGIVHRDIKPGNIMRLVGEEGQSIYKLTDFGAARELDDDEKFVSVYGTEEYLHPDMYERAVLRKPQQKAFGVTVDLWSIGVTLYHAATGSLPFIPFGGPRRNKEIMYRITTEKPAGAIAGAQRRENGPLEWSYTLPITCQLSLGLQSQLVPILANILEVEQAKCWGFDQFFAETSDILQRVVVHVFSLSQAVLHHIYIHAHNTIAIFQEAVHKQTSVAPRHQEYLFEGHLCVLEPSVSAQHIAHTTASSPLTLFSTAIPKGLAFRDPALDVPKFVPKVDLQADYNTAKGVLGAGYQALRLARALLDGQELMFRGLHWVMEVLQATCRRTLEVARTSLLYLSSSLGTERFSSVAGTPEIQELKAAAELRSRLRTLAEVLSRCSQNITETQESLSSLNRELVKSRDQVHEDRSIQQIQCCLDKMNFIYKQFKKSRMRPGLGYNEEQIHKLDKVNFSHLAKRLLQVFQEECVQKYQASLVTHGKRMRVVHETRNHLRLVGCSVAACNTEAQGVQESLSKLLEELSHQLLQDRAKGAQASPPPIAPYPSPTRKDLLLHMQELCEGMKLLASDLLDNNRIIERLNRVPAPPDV
Procedure: (§1) Test compounds were transferred into Labcyte polypropylene 384 well plates (P055-25) and diluted to 3 mM using DMSO. […] 100 uM of a reference compound (1 uM final high concentration). Backfilling was performed if necessary so that all wells contain 1% DMSO final:
(§2) add 75 nl DMSO/well into columns 1, 2 and 24 using Labcyte Echo. add 75 nl 1.0 mM staurosporine/well into column 23 using Labcyte Echo (10 uM final) add 4.5 ul enzyme/well using multidrop dispenser add 3 ul substrate/well using multidrop dispenser incubate at 25° C. for 90 min. add 7.5 ul 2× stop buffer read on labchip ez reader II using IKKε.
(§3) Raw data files were opened in the Caliper LabChip Reviewer program (Version 3.0.265.0 SP2) and peak assignments were adjusted to reflect “substrate first” with the software's post-run analysis options. A spline-fit baseline was applied using the software's analysis algorithm.

TBK1 = biological target: T2, TBK1 (Homo sapiens, UniProt Q9UHD2); assay: TBK biochemical assay; conditions: 10 point 1:4 dose response, 30 uM top concentration, 90 min at 25° C., LabChip EZ Reader II; read-out: TBK1_IC50
T2 sequence (Q9UHD2 1-729): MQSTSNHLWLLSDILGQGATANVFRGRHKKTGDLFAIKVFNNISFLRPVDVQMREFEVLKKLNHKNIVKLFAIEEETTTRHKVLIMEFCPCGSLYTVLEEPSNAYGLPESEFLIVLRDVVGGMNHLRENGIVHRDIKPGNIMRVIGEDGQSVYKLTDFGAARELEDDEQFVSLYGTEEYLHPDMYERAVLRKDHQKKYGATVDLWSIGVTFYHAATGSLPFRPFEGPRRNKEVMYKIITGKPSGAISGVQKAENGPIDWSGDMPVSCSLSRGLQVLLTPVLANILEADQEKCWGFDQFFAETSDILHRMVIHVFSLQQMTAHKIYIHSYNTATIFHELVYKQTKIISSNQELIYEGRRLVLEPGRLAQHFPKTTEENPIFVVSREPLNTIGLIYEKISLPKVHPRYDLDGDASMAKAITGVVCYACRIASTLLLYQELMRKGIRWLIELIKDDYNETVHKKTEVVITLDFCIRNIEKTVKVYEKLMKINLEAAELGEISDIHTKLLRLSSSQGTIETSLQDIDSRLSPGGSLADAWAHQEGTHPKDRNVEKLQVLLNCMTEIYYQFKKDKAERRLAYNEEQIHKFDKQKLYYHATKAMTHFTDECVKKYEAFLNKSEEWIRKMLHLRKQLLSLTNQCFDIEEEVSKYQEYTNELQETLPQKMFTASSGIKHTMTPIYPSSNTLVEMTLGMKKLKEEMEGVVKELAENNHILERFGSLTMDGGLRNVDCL
Procedure: as §1
as §2, with “C. in Heidolph incubator” for “C.”, “buffer using multidrop dispenser” for “buffer”, “TBK1.job” for “IKKε.”
as §3

| IC50 (IKKε) | IC50 (TBK1) | Compound |
| --- | --- | --- |
| < 100 nM | < 100 nM | COc1nc(Nc2nccc(-c3ccc(OC4CCOCC4)c(C#N)c3)n2)ccc1N1CCN(C(C)=O)CC1 [Example 168, 5-(2-[[5-(4-acetylpiperazin-1-yl)-6-methoxypyridin-2-yl]amino]pyrimidin-4-yl)-2-(oxan-4-yloxy)benzonitrile] |
| < 100 nM | < 100 nM | COc1nc(Nc2nccc(-c3ccc(OC4CCN(C(=O)[C@H](C)O)CC4(F)F)c(C#N)c3)n2)ccc1N1CCN(C)C[C@@H]1C (stereo partly drawn) [Example 113, 2-[3,3-Difluoro-1-((S)-2-hydroxy-propionyl)-piperidin-4-yloxy]-5-{2-[5-((S)-2,4-dimethyl-piperazin-1-yl)-6-methoxy-pyridin-2-ylamino]-pyrimidin-4-yl}-benzonitrile] |
| < 100 nM | < 100 nM | COc1nc(Nc2nccc(-c3ccc(O[C@H]4CCN(C(=O)[C@H](C)O)CC4(F)F)c(C#N)c3)n2)ccc1N1CCN(C2COC2)CC1 [Example 120, 2-([3,3-difluoro-1-[(2S)-2-hydroxypropanoyl]piperidin-4-yl]oxy)-5-[2-([6-methoxy-5-[4-(oxetan-3-yl)piperazin-1-yl]pyridin-2-yl]amino)pyrimidin-4-yl]benzonitrile] |
| 100 to 1000 nM | 100 to 1000 nM | COc1nc(Nc2nccc(-c3ccc(OC4CCN(C(=O)[C@H](O)C(C)C)CC4(F)F)c(C#N)c3)n2)ccc1C1CCN(C2COC2)CC1 (stereo partly drawn) [Example 238, 2-[3,3-Difluoro-1-((R)-2-hydroxy-3-methyl-butyryl)-piperidin-4-yloxy]-5-[2-(2-methoxy-1′-oxetan-3-yl-1′,2′,3′,4′,5′,6′-hexahydro-[3,4′]bipyridinyl-6-ylamino)-pyrimidin-4-yl]-benzonitrile] |
| < 100 nM | < 100 nM | COc1nc(Nc2nccc(-c3ccc(OC4CCN(C(=O)C(C)O)CC4(F)F)c(C#N)c3)n2)ccc1C1CCN(C)CC1 (stereo not shown) [Example 146, 2-[[3,3-difluoro-1-(2-hydroxypropanoyl)piperidin-4-yl]oxy]-5-(2-[[6-methoxy-5-(1-methylpiperidin-4-yl)pyridin-2-yl]amino]pyrimidin-4-yl)benzonitrile] |
| < 100 nM | < 100 nM | COc1nccc(Nc2nccc(-c3ccc(OC4CCN(C(=O)[C@H](C)O)CC4(F)F)c(C#N)c3)n2)n1 (stereo partly shown) [Example 233] |
| 100 to 1000 nM | 100 to 1000 nM | COc1cc(Nc2nccc(-c3ccc(OC4CCOCC4)c(C#N)n3)n2)ncc1C(=O)N(C)C [Example 24, 6-([4-[6-cyano-5-(oxan-4-yloxy)pyridin-2-yl]pyrimidin-2-yl]amino)-4-methoxy-N,N-dimethylpyridine-3-carboxamide] |
| < 100 nM | < 100 nM | N#Cc1cc(-c2ccnc(Nc3ccc(N4CCN(C5CC5)CC4)cc3)n2)ccc1OC1CCOCC1 [Example 134, 5-{2-[4-(4-Cyclopropyl-piperazin-1-yl)-phenylamino]-pyrimidin-4-yl}-2-(tetrahydro-pyran-4-yloxy)-benzonitrile] |
| < 100 nM | < 100 nM | COc1nc(Nc2ncc(F)c(-c3ccc(OC4CCN(C(=O)[C@H](C)O)CC4(F)F)c(C#N)c3)n2)ccc1N1CCN(C2COC2)CC1 (stereo partly drawn) [Example 287, 2-([3,3-difluoro-1-[(2S)-2-hydroxypropanoyl]piperidin-4-yl]oxy)-5-[5-fluoro-2-([6-methoxy-5-[4-(oxetan-3-yl)piperazin-1-yl]pyridin-2-yl]amino)pyrimidin-4-yl]benzonitrile] |
| < 100 nM | < 100 nM | CN1CCC(c2ccc(Nc3nccc(-c4ccc(OC5CCN(C(=O)CO)CC5(F)F)c(C#N)c4)n3)cc2)CC1 (stereo not shown) [Example 148, 2-[[3,3-difluoro-1-(2-hydroxyacetyl)piperidin-4-yl]oxy]-5-(2-[[4-(1-methylpiperidin-4-yl)phenyl]amino]pyrimidin-4-yl)benzonitrile] |
| > 5000 nM | > 5000 nM | COc1cc(C(=O)N(C)C)cnc1Nc1nccc(-c2ccc(NC3CCOCC3)c(C#N)c2)n1 [Example 60, 6-[(4-[3-cyano-4-[(oxan-4-yl)amino]phenyl]pyrimidin-2-yl)amino]-5-methoxy-N,N-dimethylpyridine-3-carboxamide] |
| < 100 nM | < 100 nM | COc1cc(Nc2nccc(-c3ccc(OC4CCN(C(=O)[C@H](C)O)CC4(F)F)c(C#N)c3)n2)cnc1N1CCN(C2COC2)CC1 (stereo partly drawn) [Example 323, 2-([3,3-difluoro-1-[(2S)-2-hydroxypropanoyl]piperidin-4-yl]oxy)-5-[2-([5-methoxy-6-[4-(oxetan-3-yl)piperazin-1-yl]pyridin-3-yl]amino)pyrimidin-4-yl]benzonitrile] |
| < 100 nM | < 100 nM | COc1nc(Nc2nccc(-c3ccc(OC4(C)CCNCC4(F)F)c(C#N)c3)n2)ccc1N1CCN(C2COC2)CC1 (stereo not shown) [Example 263, 2-(3,3-Difluoro-4-methyl-piperidin-4-yloxy)-5-{2-[6-methoxy-5-(4-oxetan-3-yl-piperazin-1-yl)-pyridin-2-ylamino]-pyrimidin-4-yl}-benzonitrile] |
| < 100 nM | < 100 nM | COc1nc(Nc2nccc(-c3ccc(OC4CCN(C(=O)[C@@H](O)CO)CC4(F)F)c(C#N)c3)n2)ccc1N1CCN(C2COC2)C[C@H]1C (stereo partly drawn) [Example 133, 2-[1-((S)-2,3-Dihydroxy-propionyl)-3,3-difluoro-piperidin-4-yloxy]-5-{2-[6-methoxy-5-((R)-2-methyl-4-oxetan-3-yl-piperazin-1-yl)-pyridin-2-ylamino]-pyrimidin-4-yl}-benzonitrile] |
| < 100 nM | < 100 nM | COc1nc(Nc2nccc(-c3ccc(NC4CCOCC4)c(C#N)n3)n2)ccc1C(=O)N(C)C [Example 64, 6-[(4-[6-cyano-5-[(oxan-4-yl)amino]pyridin-2-yl]pyrimidin-2-yl)amino]-2-methoxy-N,N-dimethylpyridine-3-carboxamide] |
| < 100 nM | < 100 nM | COc1nc(Nc2nccc(-c3ccc(OC4CCN(C(=O)[C@H](C)O)CC4)c(C#N)c3)n2)ccc1N1CCN(C2COC2)CC1 [Example 187, 2-([1-[(2S)-2-hydroxypropanoyl]piperidin-4-yl]oxy)-5-[2-([6-methoxy-5-[4-(oxetan-3-yl)piperazin-1-yl]pyridin-2-yl]amino)pyrimidin-4-yl]benzonitrile] |
| < 100 nM | < 100 nM | COc1nc(Nc2ncc(F)c(-c3ccc(O[C@@H]4CCN(C(=O)[C@H](C)O)CC4(F)F)c(C#N)c3)n2)ccc1N1CCN(C2COC2)CC1 [Example 289, 2-[[(4R)-3,3-difluoro-1-[(2S)-2-hydroxypropanoyl]piperidin-4-yl]oxy]-5-[5-fluoro-2-([6-methoxy-5-[4-(oxetan-3-yl)piperazin-1-yl]pyridin-2-yl]amino)pyrimidin-4-yl]benzonitrile] |
